Read-outs that look alike come from different tables or passages of the source.

The test system of assay [1] is human pancreatic cancer cells PANC-1. The assay is described as follows: MTT growth inhibition, PANC-1 cells. It counts as cell-based. The conditions noted are these: 72 h after treatment, read-out: Drug concentration (IC50) at which 50% cancer cells survived. The text has this: (§1) Cell lines and cell culture: human lung cancer cells A549 and H460, human breast cancer cells MCF-7 and MDA-MB-231, human gastric cancer cells BGC-823, human prostate cancer cells PC-3, human chronic leukemia cells K562, human lymphoma cells U937, human liver cancer cells SMMC7721 and HepG2, human colon cancer cells HT29, human pancreatic cancer cells PANC-1 and BxPC3, human cervical cancer Hela cell lines, human brain tumor cells Daoy, human neuroma cells D54 and human oral epidermoid cancer cells KBV200 line with strong drug resistance, mouse melanoma cells B16, and highly metastatic Lewis lung cancer cell lines were purchased from American Type Culture Collection of the U.S. These cells were cultured with DMEM and RPMI-1640 culture solutions separately.
(§2) The procedure was as follows:
(§3) (1) 0.25% trypsin was used to digest cancer cells in a logarithmic growth phase to prepare a single-cell suspension, the concentration of cells was adjusted to 5×10^4/mL, and the adjusted suspension was inoculated into a 96-well culture plate with 100 μl per well;
(§4) (2) The culture plate was transferred into a 37° C. incubator with a saturated humidity and 5% of CO2 and cultured for 24 h; the compounds and the intermediates thereof obtained in embodiments 1-7 and the compound as represented by formula (IIIa) or the positive control anti-cancer drug with the concentration of 1-1000 μM/L were added to enable the final concentration to be 0.1-1500 μM/L. Control wells (only added with 200 μl of cell suspension) and drug-free blank control wells (containing the solvent of 0.01% DMSO) were set, each group included 8 wells, and the plate was placed into the 37° C. incubator with saturated humidity and 5% of CO2 for culturing;
(§5) (3) The 96-well plate was taken out at 48 h and 72 h after dosing, the original culture medium was carefully removed by suction, 100 μl of serum-free DMEM culture medium and 10 μl of MTT (5 mg/mL) solution were added in each well. The plate was continuously cultured for another 4 h and then the culture was terminated;
(§6) (4) The supernatant in the wells was carefully removed by suction, each well was added with 150 μl of DMSO and shaked at room temperature for 10-15 min to fully dissolve crystals.
(§7) (5) Colorimetric analysis: the wavelength was selected as 570 nm, the light absorbance (A value) of each well was determined on the microplate reader and the results were recorded; the experiment was repeated for three times;
(§8) (6) the experimental results were calculated according to the following formula: relative survival rate=(A value of each experimental group/A value of cell control group)×100%
(§9) Calculation of median-effect concentration (IC50, namely the drug concentration at which the inhibition rate is 50%, also known as half inhibitory concentration):
(§10) IC50 of the detected component was calculated by using a regression equation.

For assay [2], the system named is human gastric cancer cells BGC-823. Kind of assay: MTT growth inhibition, BGC-823 cells. It counts as cell-based. The conditions noted are these: 72 h after treatment, read-out: Drug concentration (IC50) at which 50% cancer cells survived.
Description: as §1, §2, §3, §4, §5, §6, §7, §8, §9, §10

Assay [3] deals with human colon cancer cells HT29. The assay is described as follows: MTT growth inhibition, HT29 cells. It counts as cell-based. The following applies: HT-29, 72 h after treatment, read-out: Drug concentration (IC50) at which 50% cancer cells survived.
Description: as §1, §2, §3, §4, §5, §6, §7, §8, §9, §10

For assay [4], the system named is human prostate cancer cells PC-3. Kind of assay: MTT growth inhibition, PC-3 cells. The format is cell-based. The conditions noted are these: 72 h after treatment, read-out: Drug concentration (IC50) at which 50% cancer cells survived.
Description: as §1, §2, §3, §4, §5, §6, §7, §8, §9, §10

Assay [5] deals with human breast cancer cells MCF-7. Kind of assay: MTT growth inhibition, MCF-7 cells. The following applies: MCF7, 72 h after treatment, read-out: Drug concentration (IC50) at which 50% cancer cells survived. The format is cell-based.
Description: as §1, §2, §3, §4, §5, §6, §7, §8, §9, §10

Assay [6] concerns human lung cancer cells H460. Kind of assay: MTT growth inhibition, H460 cells. The format is cell-based. The following applies: NCI-H460, 72 h after treatment, read-out: Drug concentration (IC50) at which 50% cancer cells survived.
Description: as §1, §2, §3, §4, §5, §6, §7, §8, §9, §10

The subject of assay [7] is human oral epidermoid cancer cells KBV200. Kind of assay: MTT growth inhibition, KBV200 cells. The format is cell-based. The conditions noted are these: 72 h after treatment, read-out: Drug concentration (IC50) at which 50% cancer cells survived.
Description: as §1, §2, §3, §4, §5, §6, §7, §8, §9, §10

The subject of another assay is mouse melanoma cells B16. Kind of assay: MTT growth inhibition, B16 cells. The following applies: 72 h after treatment, read-out: Drug concentration (IC50) at which 50% cancer cells survived. The format is cell-based.
Description: as §1, §2, §3, §4, §5, §6, §7, §8, §9, §10

The test system of assay [8] is human cervical cancer Hela cell lines. The assay is described as follows: MTT growth inhibition, Hela cells. The following applies: 72 h after treatment, read-out: Drug concentration (IC50) at which 50% cancer cells survived. It counts as cell-based.
Description: as §1, §2, §3, §4, §5, §6, §7, §8, §9, §10

For assay [9], the system named is human breast cancer cells MDA-MB231 xenograft. The assay is described as follows: In-vivo growth of MDA-MB231 xenografts in nude mice. On the set-up: species or system BALB/c nude mice. The following applies: MB-231 xenograft; positive controls: cisplatin 1.5 mg/kg/day, cyclophosphamide 60 mg/kg/2 day, endostar 8 mg/kg. The method, then:
(§11) RPMI1640 and DMEM culture solutions: Hyclone Company; inactivated fetal bovine serum: Hyclone Company, preserved at −20° C.; trypsin: Amersco Company; and 0.4% trypan blue: Sigma Company;
(§12) (3) Observation of growth of tumors in nude mice: the activities (including food intake, traits of urine and stool, mental state and the like) of the nude mice and the tumor growth time and growth situation of the transplanted tumors were observed every day, the body weight and the size of the tumors were measured once every 2-3 days. The long diameter a and the short diameter b (mm) of each tumor were measured by a vernier caliper to calculate the volume, wherein the volume V=π1/2·ab^2 (mm^3);
(§13) (4) sacrifice of animals: the mice were anesthetized and photoed after treatment experiments; the nude mice were sacrificed by breaking neck, the tumor tissues were stripped under sterile conditions and the weight of the tumors was weighed; and the effects of the drugs on pathology and toxicity of the various organs and tissues were detected.

Assay [10] deals with human pancreatic cancer cells PANC-1 xenograft. Kind of assay: In-vivo growth of PANC-1 xenografts in nude mice. Also noted: species or system BALB/c nude mice. The conditions noted are these: positive controls: cisplatin 1.5 mg/kg/day, endostar 8 mg/kg. Here is the method:
as §11, §12, §13

In assay [11] the test system is human cervical cancer cells Hela xenograft. Kind of assay: In-vivo growth of Hela xenografts in nude mice. On the set-up: species or system BALB/c nude mice. The conditions noted are these: positive controls: cisplatin 1.5 mg/kg/day, endostar 8 mg/kg. Here is the method: as §11, §12, §13
In the next assay the test system is human neuroma cells D54. Kind of assay: MTT growth inhibition, D54 cells. The format is cell-based. The following applies: 72 h after treatment, read-out: Drug concentration (IC50) at which 50% cancer cells survived.
Description: as §1, §2, §3, §4, §5, §6, §7, §8, §9, §10

For assay [12], the system named is human liver cancer cells SMMC7721 xenograft. The assay is described as follows: In-vivo growth of SMMC7721 xenografts in nude mice. Also noted: species or system BALB/c nude mice. The conditions noted are these: S-7721 xenograft; positive controls: cisplatin 1.5 mg/kg/day, cyclophosphamide 60 mg/kg/2 day, endostar 8 mg/kg. Here is the method: as §11, §12, §13
Assay [13] concerns human brain tumor cells Daoy. Kind of assay: MTT growth inhibition, Daoy cells. The conditions noted are these: 72 h after treatment, read-out: Drug concentration (IC50) at which 50% cancer cells survived. The format is cell-based.
Description: as §1, §2, §3, §4, §5, §6, §7, §8, §9, §10

In assay [14] the test system is human breast cancer cells MCF-7 xenograft. The assay is described as follows: In-vivo growth of MCF-7 xenografts in nude mice. Also noted: species or system BALB/c nude mice. The following applies: positive controls: cisplatin 1.5 mg/kg/day, cyclophosphamide 60 mg/kg/2 day, endostar 8 mg/kg. Here is the method:
as §11, §12, §13

The test system of assay [15] is human lung cancer cells A549 xenograft. Kind of assay: In-vivo growth of A549 xenografts in nude mice. The conditions noted are these: positive controls: cisplatin 1.5 mg/kg/day, cyclophosphamide 60 mg/kg/2 day, endostar 8 mg/kg. On the set-up: species or system BALB/c nude mice. Here is the method: as §11, §12, §13
For assay [16], the system named is Caski human cervical cancer cells. The assay is described as follows: MTT growth inhibition, Caski cells. It counts as cell-based. The following applies: Ca-Ski, 72 h after treatment, read-out: Drug concentration (IC50) at which 50% cancer cells survived.
Assay [17] relates to human chronic leukemia cells K562. Kind of assay: MTT growth inhibition, K562 cells. It counts as cell-based. The conditions noted are these: 72 h after treatment, read-out: Drug concentration (IC50) at which 50% cancer cells survived.
Description: as §1, §2, §3, §4, §5, §6, §7, §8, §9, §10

In assay [18] the test system is human lymphoma cells U937. The assay is described as follows: MTT growth inhibition, U937 cells. It counts as cell-based. The conditions noted are these: read-out: Drug concentration (IC50) at which 50% cancer cells survived. Here is the method: as §2, §5, §6, §7, §8, §10
Assay [19] relates to human lung cancer cells A549. The assay is described as follows: MTT growth inhibition, A549 cells. The following applies: 72 h after treatment, read-out: Drug concentration (IC50) at which 50% cancer cells survived. The format is cell-based.
Description: as §1, §2, §3, §4, §5, §6, §7, §8, §9, §10

Assay [20] has as its system human breast cancer cells MDA-MB-231. Kind of assay: MTT growth inhibition, MDA-MB-231 cells. It counts as cell-based. The following applies: 72 h after treatment, read-out: Drug concentration (IC50) at which 50% cancer cells survived.
Description: as §1, §2, §3, §4, §5, §6, §7, §8, §9, §10

Assay [21] concerns highly metastatic Lewis lung cancer cell lines. The assay is described as follows: MTT growth inhibition, LLC cells. The format is cell-based, mouse. The following applies: Mus musculus, Lewis lung carcinoma, 72 h after treatment, read-out: Drug concentration (IC50) at which 50% cancer cells survived.
Description: as §1, §2, §3, §4, §5, §6, §7, §8, §9, §10

The test system of assay [22] is human liver cancer cells SMMC7721. Kind of assay: MTT growth inhibition, SMMC7721 cells. The format is cell-based. The following applies: SMMC-7721, S-7721 (SMMC7721), 72 h after treatment, read-out: Drug concentration (IC50) at which 50% cancer cells survived.
Description: as §1, §2, §3, §4, §5, §6, §7, §8, §9, §10

Consider `COc1cccc2c1C(=O)c1c(O)c3c(c(O)c1C2=O)C[C@@](O)(C(C)=O)C[C@@H]3O[C@H]1C[C@H](N)[C@H](O)[C@H](C)O1` [Daunorubicin, reference compound], for which the IC50 in assay [1] is 55 µM; in assay [2], 68 µM; in assay [3], 63 µM; in assay [4], 51 µM; in assay [5], 58 µM; in assay [6], 63 µM. Also, the IC50 in [7] worked out at 1 µM.

Take `N.N.[Cl][Pt][Cl]` [Cisplatin, reference compound]: the IC50 came to 67 ± 30 µM in the assay on mouse melanoma cells B16, 66 µM in [8], 21 µM in the assay on human neuroma cells D54 and 1.6 µM in assay [13]. Also, the “Curative effect (inhibition rate %) of tumor weight” value was “A/61.3% ± 6.7*;” in assay [9]; “A/25.3% ± 7.7” in assay [10]; “A.36.6% ± 7.5” in assay [11]; “A.69.6% ± 7.9;” in assay [12]; “A.39.9% ± 7.8;” in [14]; “A/46.7% ± 6.5*;” in assay [15].

In the case of `COc1cc([C@@H]2c3cc4c(cc3[C@@H](O[C@@H]3O[C@@H]5CO[C@@H](C)O[C@H]5[C@H](O)[C@H]3O)[C@H]3COC(=O)[C@H]23)OCO4)cc(OC)c1O` [Etoposide, reference compound], the IC50 in assay [16] was 89 µM; in [17] it was 85 µM.

As for `O=C(O)c1cc2cc(Br)ccc2oc1=O` [Compound IIId, 6-bromocoumarin-3-carboxylic acid], the IC50 was determined as 500 µM in assay [1]; 600 µM in the assay with mouse melanoma cells B16 (Mus musculus); 500 µM in assay [18] (Homo sapiens, U-937, 72 h after treatment); 600 µM in assay [19]; 600 µM in [8] (Homo sapiens); 700 ± 50 µM in [2]. For the same molecule, the IC50 in assay [17] was found to be 600 µM; in assay [3] it was 700 µM; in assay [4] it was 500 µM; in assay [20], 500 µM; in assay [5] it was 400 µM; in assay [21], 400 µM. In addition, the IC50 in [6] and in assay [22] was 500 µM in each case.

Take `N.N.O=C([O-])C1(C(=O)[O-])CCC1.[Pt+2]` [Carboplatin, reference compound]: the IC50 in [18] (72 h after treatment) stood at 58 ± 30 µM.

The record behind these values is patent US9518038B2, “Condensation product of theanine derivative and carboxylic acid coumarin derivative, its intermediate, preparation method and use thereof” (SHANDONG YINGDONG YINGHAO BIOTECHNOLOGY, INC., priority 2012, dated 2016).
